Holding throughout (assay): NCI anticancer screen, dose series, 48 h
Assay [1] deals with HS 578T breast.
Assay [2] deals with KM12 colon.
Assay [3] relates to OVCAR-5 ovarian.
Assay [4] deals with RPMI-8226 leukemia.
The subject of assay [5] is SF-295 CNS.
In assay [6] the test system is SF-539 CNS.
Assay [7] concerns SN12C renal.
Assay [8] deals with SNB-19 CNS.

SMILES strings stand for the structures.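 48-hour exposure; five concentrations; linearly interpolated endpoints. GI50 marks 50% less growth. TGI marks complete inhibition of growth.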 Bounds are passed on as bounds.

For the compound `O=C(Nc1ccc(Cl)cc1)c1cc(NCc2cc(O)ccc2O)ccc1O`, the GI50 in assay [1] was 9.12 µM; in assay [2], 3.33 µM; in assay [3] it was 4.77 µM; in assay [4], 0.57 µM; in assay [5], 15.4 µM; in assay [6], 1.73 µM. Further, the GI50 in assay [7] was 7.47 µM; in assay [8] it was 8.33 µM. For the same compound, the TGI in assay [1] worked out at 55.7 µM; in assay [2] it was 14.6 µM; in assay [3] it was 19 µM; in assay [4], 4.41 µM; in assay [5], 36.3 µM; in assay [6], 4.16 µM. In addition, the values for the TGI in assay [7] and in assay [8] were 22.6 µM and 21.2 µM, respectively.
Regarding `CCOc1ccc(Nc2ccnc3cc(Cl)ccc23)cc1`, the GI50 is 38.6 µM in assay [1]; 84.1 µM in assay [2]; 8.02 µM in assay [3]; greater than 100 µM in assay [4]; 34.4 µM in assay [5]; 29.4 µM in assay [6]. Besides, the GI50 in assay [7] and in assay [8] was greater than 100 µM in each case. Also, the TGI in assay [1], in assay [2], in assay [3], in assay [4], in assay [5] and in assay [6] was greater than 100 µM throughout. Further, the TGI in assay [7] and in assay [8] was greater than 100 µM each time.
As for `Cc1cc2[nH]c(=O)c3c4ncccc4cn3c2cc1C`, the GI50 in assay [1] is 5.93 µM; in assay [2] it was 3.17 µM; in assay [3], greater than 100 µM; in assay [4], 2.66 µM; in assay [5], 1.85 µM; in assay [6] it was 1.93 µM. Moreover, the GI50 in assay [7] was 3.45 µM; in assay [8] it was 5.48 µM. The TGI in assay [1] was 52.2 µM; in assay [2], greater than 100 µM; in assay [3] it was greater than 100 µM; in assay [4] it was 7.61 µM; in assay [5] it was 3.84 µM; in assay [6], 3.98 µM. Further, the TGI in assay [7] and in assay [8] was greater than 100 µM throughout.
On to `O=c1cc(-c2ccccc2)oc2c(O)c(O)ccc12`, for which the GI50 was 37.2 µM in assay [1]; 10.3 µM in assay [2]; 22 µM in assay [3]; 4.03 µM in assay [4]; 7.8 µM in assay [5]; 14.6 µM in assay [6]. Besides, the GI50 in assay [7] was 12.2 µM; in assay [8], 16.8 µM. Besides, the TGI in assay [1] is greater than 100 µM; in assay [2] it was greater than 100 µM; in assay [3] it was greater than 100 µM; in assay [4] it was 50.9 µM; in assay [5], greater than 100 µM; in assay [6], greater than 100 µM. The TGI in assay [7] and in assay [8] was greater than 100 µM each time.
For the compound `N#Cc1ccc2[nH]cc(Cc3c[nH]c4ccc(C#N)cc34)c2c1`, the GI50 in assay [1] was 11.4 µM; in assay [2], 9.88 µM; in assay [3], 12.3 µM; in assay [4], 13.9 µM; in assay [5], 8.84 µM; in assay [6] it was 8.64 µM. Also, the GI50 is 17 µM in assay [7] and 17.2 µM in assay [8]. Moreover, the TGI in assay [1] amounted to 25.7 µM; in assay [2] it was 20.1 µM; in assay [3] it was 29.8 µM; in assay [4], 49.7 µM; in assay [5], 22.4 µM; in assay [6], 16.9 µM. For the same compound, the TGI in assay [7] and in assay [8] was greater than 50 µM throughout.
Consider `O=C(N/N=C/c1ccc([N+](=O)[O-])cc1)c1ccccc1Nc1ccnc(C(F)(F)F)c1`, for which the GI50 in assay [1] was 2.26 µM; in assay [2], 2.75 µM; in assay [3], 24.6 µM; in assay [4], 1.61 µM; in assay [5] it was 11.2 µM; in assay [6], 30.3 µM. The GI50 in assay [7] is 26.3 µM; in assay [8], 23.9 µM. Also, the TGI in assay [1] is 49.8 µM; in assay [2], 55.4 µM; in assay [3], greater than 100 µM; in assay [4] it was 14.5 µM; in assay [5], 32.4 µM; in assay [6], greater than 100 µM. The TGI in assay [7] and in assay [8] was greater than 100 µM throughout.
Take `CCC(CO)Nc1nc(NCc2ccccc2)c2n[nH]c(C(C)C)c2n1` (centres undefined): the GI50 is 11.6 µM in assay [1]; 10.2 µM in assay [2]; 13.4 µM in assay [3]; 5.95 µM in assay [4]; 16.1 µM in assay [5]; 12.7 µM in assay [6]. For the same compound, the GI50 in assay [7] is 14.1 µM; in assay [8], 15.8 µM. The TGI came to 34.3 µM in assay [1]; 23.1 µM in assay [2]; 36 µM in assay [3]; 29 µM in assay [4]; 32.7 µM in assay [5]; 26.1 µM in assay [6]. In addition, the results for the TGI in assay [7] and in assay [8] were 31.7 µM and 30.5 µM, respectively.
Regarding `[Mn+3].[O-][Cl+3]([O-])([O-])O.[O-]c1ccccc1C=NCCN1CC1.[O-]c1ccccc1C=NCCN1CC1`, the GI50 in assay [1] is 33.6 µM; in assay [2], 17 µM; in assay [3], 37.6 µM; in assay [4], 1.36 µM; in assay [5] it was 18.6 µM; in assay [6], 30.6 µM. Besides, the results for the GI50 in assay [7] and in assay [8] were 19.4 µM and 44.6 µM, respectively. Also, the TGI was greater than 100 µM in assay [1]; 39 µM in assay [2]; greater than 100 µM in assay [3]; 9.91 µM in assay [4]; 58 µM in assay [5]; greater than 100 µM in assay [6]. The TGI in assay [7] and in assay [8] was greater than 100 µM in each case.
With `C#Cc1cccc(Nc2nc(C)nc3cc(NC(=O)CCl)ccc23)c1`, the GI50 was 2.8 µM in assay [1]; 4.13 µM in assay [2]; 0.953 µM in assay [3]; 1.12 µM in assay [4]; 3.39 µM in assay [5]; 3.34 µM in assay [6]. Besides, the GI50 in assay [7] is 0.896 µM; in assay [8] it was 1.29 µM. Further, the TGI in assay [1] is 10.2 µM; in assay [2], 8.15 µM; in assay [3], 5.38 µM; in assay [4], 4.75 µM; in assay [5], 6.86 µM; in assay [6], 6.6 µM. In addition, the TGI in assay [7] turned out to be 3.58 µM; in assay [8] it was 4.29 µM.

Source of the values: PubChem BioAssay (NCI).
